Data published in ChEMBL document CHEMBL3112450, “Synthesis and in vitro antitumor evaluation of primary amine substituted quinazoline linked benzimidazole” (Bioorg Med Chem Lett, 2014).

How the values were obtained:
Type in all cases: functional
HOP-92 = test: Cytotoxicity against human HOP92 cells assessed as growth inhibition at 10 uM after 48 hrs by SRB assay; conditions: HOP-92, 48 h, read-out: GI
[1] = Cytotoxicity against human OVCAR4 cells assessed as cell growth at 10^-7 M after 48 hrs by SRB assay; conditions: OVCAR-4, 48 h, read-out: Activity
RPMI-8226 [2] = test: Cytotoxicity against human RPMI8226 cells after 48 hrs by SRB assay; conditions: RPMI-8226, 48 h
PC-3 [3] = test: Cytotoxicity against human PC3 cells assessed as cell growth at 10^-4 M after 48 hrs by SRB assay; conditions: PC-3, 48 h, read-out: Activity
Malme-3M [4] = test: Cytotoxicity against human MALME-3M cells assessed as cell growth at 10^-7 M after 48 hrs by SRB assay; conditions: read-out: Activity
NCI-H322M = test: Cytotoxicity against human NCI-H322M cells assessed as cell growth at 10^-7 M after 48 hrs by SRB assay; conditions: read-out: Activity
NCI-H23 = test: Cytotoxicity against human NCI-H23 cells assessed as cell growth at 10^-7 M after 48 hrs by SRB assay; conditions: NCI-H23, 48 h, read-out: Activity
RPMI-8226 [5] = test: Cytotoxicity against human RPMI8226 cells assessed as cell growth at 10^-7 M after 48 hrs by SRB assay; conditions: RPMI-8226, 48 h, read-out: Activity
MDA-MB-468 = test: Cytotoxicity against human MDA-MB-468 cells assessed as cell growth at 10^-8 M after 48 hrs by SRB assay; conditions: MDA-MB-468, 48 h, read-out: Activity
MCF7 [6] = test: Cytotoxicity against human MCF7 cells assessed as cell growth at 10^-8 M after 48 hrs by SRB assay; conditions: MCF7, 48 h, read-out: Activity
[7] = Cytotoxicity against human UO31 cells assessed as cell growth at 10^-8 M after 48 hrs by SRB assay; conditions: UO-31, 48 h, read-out: Activity
M14 [8] = test: Cytotoxicity against human M14 cells assessed as cell growth at 10^-4 M after 48 hrs by SRB assay; conditions: M14, 48 h, read-out: Activity
SF-539 = test: Cytotoxicity against human SF539 cells assessed as cell growth at 10^-4 M after 48 hrs by SRB assay; conditions: SF-539, 48 h, read-out: Activity
RPMI-8226 [9] = test: Cytotoxicity against human RPMI8226 cells assessed as cell growth at 10^-4 M after 48 hrs by SRB assay; conditions: RPMI-8226, 48 h, read-out: Activity
IGROV-1 = test: Cytotoxicity against human IGROV1 cells assessed as cell growth at 10^-8 M after 48 hrs by SRB assay; conditions: IGROV-1, 48 h, read-out: Activity
UACC-62 = test: Cytotoxicity against human UACC62 cells assessed as cell growth at 10^-8 M after 48 hrs by SRB assay; conditions: UACC-62, 48 h, read-out: Activity
M14 [10] = test: Cytotoxicity against human M14 cells assessed as cell growth at 10^-8 M after 48 hrs by SRB assay; conditions: M14, 48 h, read-out: Activity
Malme-3M [11] = test: Cytotoxicity against human MALME-3M cells assessed as cell growth at 10^-8 M after 48 hrs by SRB assay; conditions: read-out: Activity
SF-268 [12] = test: Cytotoxicity against human SF268 cells assessed as cell growth at 10^-8 M after 48 hrs by SRB assay; conditions: SF-268, 48 h, read-out: Activity
HT-29 [13] = test: Cytotoxicity against human HT-29 cells assessed as cell growth at 10^-8 M after 48 hrs by SRB assay; conditions: HT-29, 48 h, read-out: Activity
NCI-H522 = test: Cytotoxicity against human NCI-H522 cells assessed as cell growth at 10^-8 M after 48 hrs by SRB assay; conditions: NCI-H522, 48 h, read-out: Activity
HL-60(TB) = test: Cytotoxicity against human HL-60(TB) cells assessed as cell growth at 10^-8 M after 48 hrs by SRB assay; conditions: HL-60, 48 h, read-out: Activity
CCRF-CEM = test: Cytotoxicity against human CCRF-CEM cells assessed as cell growth at 10^-8 M after 48 hrs by SRB assay; conditions: read-out: Activity
SN12C = test: Cytotoxicity against human SN12C cells after 48 hrs by SRB assay
CAKI-1 [14] = test: Cytotoxicity against human Caki1 cells after 48 hrs by SRB assay; conditions: CAKI-1, 48 h
OVCAR-3 = test: Cytotoxicity against human OVCAR3 cells after 48 hrs by SRB assay; conditions: OVCAR-3, 48 h
Malme-3M [15] = test: Cytotoxicity against human MALME-3M cells after 48 hrs by SRB assay
SF-268 [16] = test: Cytotoxicity against human SF268 cells after 48 hrs by SRB assay; conditions: SF-268, 48 h
HCT-15 = test: Cytotoxicity against human HCT15 cells after 48 hrs by SRB assay; conditions: HCT-15, 48 h
ACHN = test: Cytotoxicity against human ACHN cells assessed as cell growth at 10^-6 M after 48 hrs by SRB assay; conditions: read-out: Activity
M14 [17] = test: Cytotoxicity against human M14 cells assessed as cell growth at 10^-6 M after 48 hrs by SRB assay; conditions: M14, 48 h, read-out: Activity
SF-268 [18] = test: Cytotoxicity against human SF268 cells assessed as cell growth at 10^-6 M after 48 hrs by SRB assay; conditions: SF-268, 48 h, read-out: Activity
HT-29 [19] = test: Cytotoxicity against human HT-29 cells assessed as cell growth at 10^-6 M after 48 hrs by SRB assay; conditions: HT-29, 48 h, read-out: Activity
HCC 2998 = test: Cytotoxicity against human HCC2998 cells assessed as cell growth at 10^-6 M after 48 hrs by SRB assay; conditions: HCC 2998, 48 h, read-out: Activity
COLO 205 = test: Cytotoxicity against human COLO205 cells assessed as cell growth at 10^-6 M after 48 hrs by SRB assay; conditions: COLO 205, 48 h, read-out: Activity
MCF7 [20] = test: Cytotoxicity against human MCF7 cells assessed as cell growth at 10^-7 M after 48 hrs by SRB assay; conditions: MCF7, 48 h, read-out: Activity
PC-3 [21] = test: Cytotoxicity against human PC3 cells assessed as cell growth at 10^-7 M after 48 hrs by SRB assay; conditions: PC-3, 48 h, read-out: Activity
CAKI-1 [22] = test: Cytotoxicity against human Caki1 cells assessed as cell growth at 10^-7 M after 48 hrs by SRB assay; conditions: CAKI-1, 48 h, read-out: Activity
A498 = test: Cytotoxicity against human A498 cells assessed as cell growth at 10^-7 M after 48 hrs by SRB assay; conditions: A498, 48 h, read-out: Activity
786-0 = test: Cytotoxicity against human 786-0 cells assessed as cell growth at 10^-7 M after 48 hrs by SRB assay; conditions: 786-0, 48 h, read-out: Activity

Structure (SMILES): C=CCn1c(C)nc2ccc(Nc3nc(Sc4ccc(N)cc4)nc4ccccc34)cc21
- inhibition of growth at 10 µM (HOP-92): 30%

Structure (SMILES): C=CCn1c(C)nc2cc(Nc3nc(NCCO)nc4ccccc34)ccc21
- inhibition of growth at 10 µM (HOP-92): 40%

Structure (SMILES): C=CCn1c(C)nc2cc(Nc3nc(Nc4ccc5nc(C)n(CC=C)c5c4)c4ccccc4n3)ccc21
- growth at 0.1 µM [1]: 102%
- GI50 (RPMI-8226 [2]): 1240 nM
- LC50 (RPMI-8226 [2]): > 100000 nM
- TGI (RPMI-8226 [2]): 3930 nM
- growth at 100 µM (PC-3 [3]): -41%
- growth at 0.1 µM (Malme-3M [4]): 97%
- growth at 0.1 µM (NCI-H322M): 91%
- growth at 0.1 µM (NCI-H23): 93%
- growth at 0.1 µM (RPMI-8226 [5]): 100%
- growth at 0.01 µM (MDA-MB-468): 106%
- growth at 0.01 µM (MCF7 [6]): 101%
- growth at 0.01 µM [7]: 85%
- growth at 100 µM (M14 [8]): -4%
- growth at 100 µM (SF-539): -94%
- growth at 100 µM (RPMI-8226 [9]): -20%
- growth at 0.01 µM (IGROV-1): 103%
- growth at 0.01 µM (UACC-62): 97%
- growth at 0.01 µM (M14 [10]): 100%
- growth at 0.01 µM (Malme-3M [11]): 95%
- growth at 0.01 µM (SF-268 [12]): 95%
- growth at 0.01 µM (HT-29 [13]): 103%
- growth at 0.01 µM (NCI-H522): 97%
- growth at 0.01 µM (HL-60(TB)): 98%
- growth at 0.01 µM (CCRF-CEM): 105%
- GI50 (SN12C): 1280 nM
- TGI (SN12C): 2900 nM
- GI50 (CAKI-1 [14]): 1610 nM
- LC50 (concentration causing 50% net cell kill) (CAKI-1 [14]): 5690 nM
- TGI (CAKI-1 [14]): 3030 nM
- GI50 (OVCAR-3): 192 nM
- LC50 (OVCAR-3): 701 nM
- TGI (OVCAR-3): 367 nM
- GI50 (Malme-3M [15]): 2270 nM
- TGI (Malme-3M [15]): 4100 nM
- GI50 (SF-268 [16]): 1040 nM
- LC50 (50% lethal concentration) (SF-268 [16]): 4730 nM
- TGI (SF-268 [16]): 2210 nM
- GI50 (HCT-15): 352 nM
- growth at 1 µM (ACHN): 35%
- growth at 1 µM (M14 [17]): 72%
- growth at 1 µM (SF-268 [18]): 52%
- growth at 1 µM (HT-29 [19]): -87%
- growth at 1 µM (HCC 2998): 63%
- growth at 1 µM (COLO 205): -75%
- growth at 0.1 µM (MCF7 [20]): 103%
- growth at 0.1 µM (PC-3 [21]): 96%
- growth at 0.1 µM (CAKI-1 [22]): 97%
- growth at 0.1 µM (A498): 100%
- growth at 0.1 µM (786-0): 98%

Structure (SMILES): C=CCn1c(C)nc2ccc(Nc3nc(Nc4ncccn4)nc4ccccc34)cc21
- inhibition of growth at 10 µM (HOP-92): 30%
